Paper PMC6004562, “Discovery of Orally Bioavailable, Quinoline-Based Aldehyde Dehydrogenase 1A1 (ALDH1A1) Inhibitors with Potent Cellular Activity” (Journal of Medicinal Chemistry, 2018)
Read-outs that look alike come from different tables or passages of the source.

How the values were obtained:
[1] = Figure 1, previously reported; cited from earlier work
[2] = Figure 1, previously reported; cited from earlier work; remark: listed apart in the source
[3] = pharmacokinetics in CD-1 mice; assay type: in vivo; details: male, plasma, CD-1 mouse; for Vd: read-out: Vss; for bioavailability: po 10 mg/kg vs iv 2 mg/kg
[4] = pilot toxicity / tolerability study in CD-1 mice; details: po 50 mg/kg, QD*5, 5 days observation
[5] = mouse, in vivo, po, 50 mg/kg
[6] = iv 2 mg/kg, observed at t = 5 min

| AUC(0-inf) ([3]; iv 2 mg/kg) [ng·h/mL] | Cmax [3, 6] [ng/mL] | Vd ([3]; iv 2 mg/kg) [L/kg] | AUC(0-inf) ([3]; po 10 mg/kg) [ng·h/mL] | Cmax ([3]; po 10 mg/kg) [ng/mL] | bioavailability [3] [%] | Compound | RLM [1] [min] | solubility [2] [µg/mL] | tolerability [4] | tolerability [5] |
| --- | --- | --- | --- | --- | --- | --- | --- | --- | --- | --- |
|  |  |  |  |  |  | CC(C)CCn1c(CN2CCN(C(=O)C3CC3)CC2)nc2c1c(=O)n(C)c(=O)n2C [Compound 4] | > 30 | > 62 |  |  |
| 505 | 1500 | 1.2 | 227 | 215 | 9 | N#CC1(c2ccccc2)CCN(c2c(C(=O)N3CCN(C(=O)C4CC4)CC3)cnc3ccc(F)cc23)CC1 [Compound 78] |  |  |  |  |
|  |  |  |  |  |  | CS(=O)(=O)N1CCN(C(=O)c2cnc3ccc(F)cc3c2N2CCC(C#N)(c3ccccc3)CC2)CC1 [Compound 86, 1-(6-Fluoro-3-(4-(methylsulfonyl)piperazine-1-carbonyl)quinolin-4-yl)-4-phenylpiperidine-4-carbonitrile] |  |  | no significant weight loss or abnormal clinical signs and no mortality was observed |  |
|  |  |  |  |  |  | CS(=O)(=O)N1CCN(C(=O)c2cnc3ccc(F)cc3c2-c2ccc(C3(C#N)CC3)cc2)CC1 [Compound 91, 1-(4-(6-Fluoro-3-(4-(methylsulfonyl)piperazine-1-carbonyl)quinolin-4-yl)phenyl)cyclopropanecarbonitrile] |  |  |  | no significant weight loss or abnormal clinical signs and no mortality was observed |
| 661 | 1800 | 0.72 | 844 | 1110 | 30 | CN(C)C(=O)N1CCN(C(=O)c2cnc3ccc(F)cc3c2N2CCC(C#N)(c3ccccc3)CC2)CC1 [Compound 108] |  |  |  |  |
| 459 | 1100 | 1.39 | 720 | 471 | 31 | CS(=O)(=O)N1CCN(C(=O)c2cnc3ccc(Cl)cc3c2N2CCC(C#N)(c3ccccc3)CC2)CC1 [Compound 109] |  |  |  |  |
| 1410 | 1960 | 2.2 | 2140 | 1170 | 30 | CN(C)C(=O)N1CCN(C(=O)c2cnc3ccc(F)cc3c2-c2ccc(C3(C#N)CC3)cc2)CC1 [Compound 118] |  |  |  |  |
| 1130 |  | 1.14 | 2760 | 1470 | 49 | CS(=O)(=O)N1CCN(C(=O)c2cnc3ccc(Cl)cc3c2-c2ccc(C3(C#N)CC3)cc2)CC1 [Compound 119] |  |  |  |  |
